Series [1] is described as follows: Solubility of asenapine maleate in water and solvents. It is filed as physicochemical.
A further series is described as follows: pKa of asenapine maleate. Format: physicochemical.

The structures appear in SMILES notation. Where a name gives a salt, the structure may show the parent alone. Read-outs that look alike come from different tables or passages of the source.

For orientation: solubility means how much of the substance goes into solution per volume. What is called pKa is the pH at which an ionisable group is half protonated. Low values mean a stronger acid or weaker base, high ones a weaker acid or stronger base.

As for `CN1C[C@@H]2c3ccccc3Oc3ccc(Cl)cc3[C@H]2C1` (racemic) [asenapine maleate], the solubility turned out to be 700 mg/mL in series [1] (N-methylpyrrolidone, organic solvent or mixture, NMP, read-out: N-methylpyrrolidone (NMP) solubility); 500 mg/mL in series [1] (benzyl alcohol, organic solvent or mixture, BA, read-out: benzyl alcohol (BA) solubility); 324 mg/mL in series [1] (dichloromethane, organic solvent or mixture, DCM, read-out: dichloromethane (DCM) solubility); 700 mg/mL in series [1] (dimethyl sulfoxide, organic solvent or mixture, DMSO, read-out: dimethyl sulfoxide (DMSO) solubility); 100 mg/mL in series [1] (ethanol, organic solvent or mixture, EtOH, read-out: ethanol (EtOH) solubility); 10 mg/mL in series [1] (ethyl acetate, organic solvent or mixture, EA, read-out: ethyl acetate (EA) solubility). In addition, the solubility in series [1] (water, read-out: water solubility) was 3 mg/mL. The pKa in “pKa of asenapine maleate” was found to be 8.64.

(Values after patent publication US20250032451A1, “MICROSPHERE FORMULATIONS COMPRISING ASENAPINE AND METHODS FOR MAKING AND USING THE SAME” (Oakwood Laboratories, LLC, priority 2021, published 2025).)
